Reference: patent publication US8710184B2, “Motilin-like peptide compound having transmucosal absorbability imparted thereto” (Daiichi Sankyo Company, Limited, priority 2009, dated 2014)
Starred links: 1 amine or outer side, 2 acyl side, 3 side chain; linkers in the order of their positions; H or OH if unused. Non-standard residues stand in square brackets, D forms with d. Residues, ends and D or L forms follow the SMILES beside them. No end group written: not given here. X1 = CC(C)[C@@H](C(=O)[*:2])N(C[C@@H](N)Cc1ccccc1)[*:1]; β3hPhg = O=C(C[C@@H](N[*:1])c1ccccc1)[*:2]; Sar = CNCC(=O)O

Test: Pharmacokinetic experiment on pulmonarily administered native motilin and motilin derivative compounds in rats (RIA)
Assay type: in vivo, rat
Conditions: pulmonary administration; for Cmax / AUC: male, SD, plasma, inhaled or intranasal, 25 ug/animal; for Cmax / AUC / BA: 25 μg/rat; for AUC: trapezoidal method; for BA: relative to AUC of intravenous native motilin
Procedure: As test animals, 7- to 10-wk old male SD rats (purchased from CHARLES RIVER LABORATORIES JAPAN, INC.) that consisted of 3 rats per a group were subjected to the following experiment. Native motilin or motilin derivative compounds were dissolved in an aqueous solution of 0.1 N acetic acid to prepare a solution at a concentration of 1 mg/mL and 25 μL of the solution was administered into the polyethylene tube through the trachea by means of an intratracheal liquid spraying device (MicroSprayer; product of Penn Century). […] In the measurement, the respective derivatives were used as standard substances to construct calibration curves for determining the plasma levels.
Using these values, bioavailability (BA (%)) was calculated by the following equation: BA(%)=[(AUC/Dose)/(AUC(motilin—iv)/Dose(motilin—iv))]×100 • AUC: AUC (ng·min/mL) after pulmonary administration • Dose: dose (μg/kg) in pulmonary administration • AUC (motilin_iv): AUC (ng·min/mL) after intravenous administration of native motilin • Dose (motilin_iv): dose (μg/kg) in intravenous administration of native motilin.

`CC[C@H](C)[C@H](NC(=O)[C@@H]1CCCN1C(=O)[C@@H](NC[C@@H](N)Cc1ccccc1)C(C)C)C(=O)N[C@@H](Cc1ccccc1)C(=O)N[C@H](C(=O)N[C@@H](Cc1ccc(O)cc1)C(=O)NCC(=O)N[C@@H](CCC(=O)O)C(=O)N[C@@H](CC(C)C)C(=O)N[C@@H](CCC(N)=O)C(=O)N[C@@H](CCCNC(=N)N)C(=O)N[C@@H](CCSC)C(=O)N[C@@H](CCC(N)=O)C(=O)N[C@@H](CCC(=O)O)C(=O)N[C@@H](CCCCN)C(=O)N[C@@H](CCC(=O)O)C(=O)N[C@@H](CCCNC(=N)N)C(=O)N[C@@H](CC(N)=O)C(=O)N[C@@H](CCCCN)C(=O)NCC(=O)N[C@@H](CCC(N)=O)C(=O)O)[C@@H](C)O` [Comparative compound 2, reference compound] (H-[X1]PIFTYGELQRMQEKERNKGQ-OH; N-terminus and C-terminus assumed) showed a Cmax of 9.3 ± 3.09 ng/mL, an AUC of 1.98 ng·h/mL and a BA of 4.1 ± 1.6%. For the same compound, the BA (listed as comparative compound 2) was 4.1%.
For `CC[C@H](C)[C@H](NC(=O)[C@@H]1CCCN1C(=O)[C@@H](NC[C@@H](N)Cc1ccccc1)C(C)C)C(=O)N[C@@H](Cc1ccccc1)C(=O)N[C@H](C(=O)N[C@@H](Cc1ccc(O)cc1)C(=O)NCC(=O)N[C@@H](CCC(=O)O)C(=O)N[C@@H](CC(C)C)C(=O)N[C@@H](CCC(N)=O)C(=O)N[C@@H](CCCNC(=N)N)C(=O)N[C@@H](CC(C)C)C(=O)N[C@@H](CCC(N)=O)C(=O)N[C@@H](CCC(=O)O)C(=O)N[C@@H](CCCCN)C(=O)N[C@@H](CCC(=O)O)C(=O)N[C@@H](CCCNC(=N)N)C(=O)N[C@@H](CC(N)=O)C(=O)N[C@@H](CCCCN)C(=O)N1CCC[C@H]1C(=O)N[C@@H](CCC(N)=O)C(=O)O)[C@@H](C)O` [Compound 7] (H-[X1]PIFTYGELQRLQEKERNKPQ-OH; N-terminus and C-terminus assumed), the Cmax was 17.2 ± 7.18 ng/mL, the AUC was 3.24 ng·h/mL and the BA was 6.4 ± 1.3%.
FVPIFTYGDLQRLQEKERPKPQ [Compound 3] gave a Cmax of 24.6 ± 5.8 ng/mL, an AUC of 4.7 ng·h/mL and a BA of 9.5 ± 0.9%.
`CC[C@H](C)[C@H](NC(=O)[C@@H]1CCCN1C(=O)[C@@H](NC[C@@H](N)Cc1ccccc1)C(C)C)C(=O)N[C@@H](Cc1ccccc1)C(=O)N[C@H](C(=O)N[C@@H](Cc1ccc(O)cc1)C(=O)NCC(=O)N[C@@H](CC(=O)O)C(=O)N[C@@H](CC(C)C)C(=O)N[C@@H](CCC(N)=O)C(=O)N[C@@H](CCCNC(=N)N)C(=O)N[C@@H](CCSC)C(=O)N[C@@H](CCC(N)=O)C(=O)N[C@@H](CCC(=O)O)C(=O)N[C@@H](CCCCN)C(=O)N[C@@H](CCC(=O)O)C(=O)N[C@@H](CCCNC(=N)N)C(=O)N1CCC[C@H]1C(=O)N[C@@H](CCCCN)C(=O)N1CCC[C@H]1C(=O)N[C@@H](CCC(N)=O)C(=O)O)[C@@H](C)O` [Compound 13] (H-[X1]PIFTYGDLQRMQEKERPKPQ-OH; N-terminus and C-terminus assumed) showed a Cmax of 18.4 ± 10.4 ng/mL, an AUC of 3.09 ng·h/mL and a BA of 5.6 ± 1.5%.
For `CC[C@H](C)[C@H](NC(=O)[C@@H]1CCCN1C(=O)[C@@H](NC[C@@H](N)Cc1ccccc1)C(C)C)C(=O)N[C@@H](Cc1ccccc1)C(=O)N[C@H](C(=O)N[C@@H](Cc1ccc(O)cc1)C(=O)NCC(=O)N[C@@H](CC(=O)O)C(=O)N[C@@H](CC(C)C)C(=O)N[C@@H](CCC(N)=O)C(=O)N[C@@H](CCCNC(=N)N)C(=O)N[C@@H](CC(C)C)C(=O)N[C@@H](CCC(N)=O)C(=O)N[C@@H](CCC(=O)O)C(=O)N[C@@H](CCCCN)C(=O)N[C@@H](CCC(=O)O)C(=O)N[C@@H](CCCNC(=N)N)C(=O)N1CCC[C@H]1C(=O)N[C@@H](CCCCN)C(=O)N1CCC[C@H]1C(=O)N[C@@H](CCC(N)=O)C(=O)O)[C@@H](C)O` [Compound 12] (H-[X1]PIFTYGDLQRLQEKERPKPQ-OH; N-terminus and C-terminus assumed), the Cmax was 30.1 ± 15.8 ng/mL, the AUC was 9.42 ng·h/mL and the BA was 18.7 ± 10.7%.
With “FVPIFTYGELQRLQEKERNKGQ [Comparative compound 1, reference compound]” the Cmax was 4.53 ± 2.86 ng/mL, the AUC was 1.05 ng·h/mL and the BA was 2.8 ± 1.6%. The BA (listed as comparative compound 1) was 2.8%.
Compound `CC[C@H](C)[C@H](NC(=O)[C@@H]1CCCN1C(=O)[C@@H](NC[C@@H](N)Cc1ccccc1)C(C)C)C(=O)N[C@@H](Cc1ccccc1)C(=O)N[C@H](C(=O)N[C@@H](Cc1ccc(O)cc1)C(=O)NCC(=O)N[C@@H](CCC(=O)O)C(=O)N[C@@H](CC(C)C)C(=O)N[C@@H](CCC(N)=O)C(=O)N[C@@H](CCCNC(=N)N)C(=O)N[C@@H](CCSC)C(=O)N[C@@H](CCC(N)=O)C(=O)N[C@@H](CCC(=O)O)C(=O)N[C@@H](CCCCN)C(=O)N[C@@H](CCC(=O)O)C(=O)N[C@@H](CCCNC(=N)N)C(=O)N[C@@H](CC(N)=O)C(=O)N[C@@H](CCCCN)C(=O)N1CCC[C@H]1C(=O)N[C@@H](CCC(N)=O)C(=O)O)[C@@H](C)O` [Compound 6] (H-[X1]PIFTYGELQRMQEKERNKPQ-OH; N-terminus and C-terminus assumed) has a Cmax of 34.2 ± 20 ng/mL, an AUC of 6.34 ng·h/mL and a BA of 11.5 ± 6.1%. For the same compound, the BA (listed as compound 6) was 11.5% and the “profile of plasma concentration compared with native motilin” value (FIG. 3) was “high peak levels”.
With `CC[C@H](C)[C@H](NC(=O)CN(C)C(=O)[C@@H](NC(=O)C[C@@H](N)c1ccccc1)C(C)C)C(=O)N[C@@H](Cc1ccccc1)C(=O)N[C@H](C(=O)N[C@@H](Cc1ccc(O)cc1)C(=O)NCC(=O)N[C@@H](CCC(=O)O)C(=O)N[C@@H](CC(C)C)C(=O)N[C@@H](CCC(N)=O)C(=O)N[C@@H](CCCNC(=N)N)C(=O)N[C@@H](CC(C)C)C(=O)N[C@@H](CCC(N)=O)C(=O)N[C@@H](CCC(=O)O)C(=O)N[C@@H](CCCCN)C(=O)N[C@@H](CCC(=O)O)C(=O)N[C@@H](CCCNC(=N)N)C(=O)N1CCC[C@H]1C(=O)N[C@@H](CCCCN)C(=O)N1CCC[C@H]1C(=O)N[C@@H](CCC(N)=O)C(=O)O)[C@@H](C)O` [Compound 5, Phg(C#CH2) Val Sar Ile Phe Thr Tyr Gly Glu Leu Gln Arg Leu Gln Glu Lys Glu Arg Pro Lys Pro Gln] (β3hPhg-V[Sar]IFTYGELQRLQEKERPKPQ-OH; N-terminus and C-terminus assumed) the Cmax was 14.8 ± 7.78 ng/mL, the AUC was 2.92 ng·h/mL and the BA was 5.7 ± 2.9%.
In the case of `CC[C@H](C)[C@H](NC(=O)[C@@H]1CCCN1C(=O)[C@@H](NC(=O)C[C@@H](N)c1ccccc1)C(C)C)C(=O)N[C@@H](Cc1ccccc1)C(=O)N[C@H](C(=O)N[C@@H](Cc1ccc(O)cc1)C(=O)NCC(=O)N[C@@H](CCC(=O)O)C(=O)N[C@@H](CC(C)C)C(=O)N[C@@H](CCC(N)=O)C(=O)N[C@@H](CCCNC(=N)N)C(=O)N[C@@H](CC(C)C)C(=O)N[C@@H](CCC(N)=O)C(=O)N[C@@H](CCC(=O)O)C(=O)N[C@@H](CCCCN)C(=O)N[C@@H](CCC(=O)O)C(=O)N[C@@H](CCCNC(=N)N)C(=O)N1CCC[C@H]1C(=O)N[C@@H](CCCCN)C(=O)N1CCC[C@H]1C(=O)N[C@@H](CCC(N)=O)C(=O)O)[C@@H](C)O` [Compound 4] (β3hPhg-VPIFTYGELQRLQEKERPKPQ-OH; N-terminus and C-terminus assumed), the Cmax is reported as 14.6 ± 8.23 ng/mL, the AUC is reported as 4.69 ng·h/mL and the BA is reported as 11.0 ± 7.2%.
Work on FVPIFTYGELQRLQEKERPKPQ [Compound 9] yielded a Cmax of 8.99 ± 5.99 ng/mL, an AUC of 1.93 ng·h/mL and a BA of 5.7 ± 3.1%.
